{
  "source": "ChEMBL document CHEMBL1201862",
  "about": "“PubChem BioAssay data set” (2004)",
  "key": {"[1]": {"molecular_target": "Voltage-gated inwardly rectifying potassium channel KCNH2 (Homo sapiens, UniProt Q12809)", "sequence (Q12809 whole entry)": "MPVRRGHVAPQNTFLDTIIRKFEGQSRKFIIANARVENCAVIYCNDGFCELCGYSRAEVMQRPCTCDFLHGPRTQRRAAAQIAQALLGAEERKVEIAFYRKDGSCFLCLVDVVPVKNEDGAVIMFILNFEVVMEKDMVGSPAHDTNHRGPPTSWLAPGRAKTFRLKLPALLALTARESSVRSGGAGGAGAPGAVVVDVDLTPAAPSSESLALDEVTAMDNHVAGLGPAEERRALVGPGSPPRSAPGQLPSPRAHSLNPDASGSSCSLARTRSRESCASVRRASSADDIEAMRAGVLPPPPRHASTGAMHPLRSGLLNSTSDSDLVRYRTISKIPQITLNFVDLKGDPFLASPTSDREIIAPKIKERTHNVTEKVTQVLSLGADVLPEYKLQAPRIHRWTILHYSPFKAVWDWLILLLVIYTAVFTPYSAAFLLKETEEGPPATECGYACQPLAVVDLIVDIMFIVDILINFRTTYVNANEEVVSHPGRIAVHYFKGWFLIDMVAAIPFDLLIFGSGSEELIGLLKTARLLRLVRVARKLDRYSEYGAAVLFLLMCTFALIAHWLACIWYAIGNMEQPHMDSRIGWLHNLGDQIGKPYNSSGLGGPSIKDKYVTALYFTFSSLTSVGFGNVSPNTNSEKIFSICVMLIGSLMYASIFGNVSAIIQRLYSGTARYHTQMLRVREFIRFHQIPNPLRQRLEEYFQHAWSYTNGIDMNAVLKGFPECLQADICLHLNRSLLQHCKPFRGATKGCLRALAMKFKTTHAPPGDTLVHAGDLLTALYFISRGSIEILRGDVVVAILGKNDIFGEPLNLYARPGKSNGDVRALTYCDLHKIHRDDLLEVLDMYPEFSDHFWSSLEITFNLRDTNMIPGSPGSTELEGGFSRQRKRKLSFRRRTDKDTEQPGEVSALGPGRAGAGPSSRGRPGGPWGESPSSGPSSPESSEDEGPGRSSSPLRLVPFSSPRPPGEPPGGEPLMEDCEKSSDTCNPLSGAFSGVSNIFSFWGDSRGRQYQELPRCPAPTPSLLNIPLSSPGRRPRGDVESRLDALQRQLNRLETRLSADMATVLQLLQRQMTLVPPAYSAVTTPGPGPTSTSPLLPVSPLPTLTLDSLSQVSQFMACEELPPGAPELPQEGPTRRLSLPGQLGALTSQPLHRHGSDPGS", "conditions": "Potency"}, "Albumin": {"molecular_target": "Albumin (Bos taurus, UniProt P02769)", "sequence (P02769 whole entry)": "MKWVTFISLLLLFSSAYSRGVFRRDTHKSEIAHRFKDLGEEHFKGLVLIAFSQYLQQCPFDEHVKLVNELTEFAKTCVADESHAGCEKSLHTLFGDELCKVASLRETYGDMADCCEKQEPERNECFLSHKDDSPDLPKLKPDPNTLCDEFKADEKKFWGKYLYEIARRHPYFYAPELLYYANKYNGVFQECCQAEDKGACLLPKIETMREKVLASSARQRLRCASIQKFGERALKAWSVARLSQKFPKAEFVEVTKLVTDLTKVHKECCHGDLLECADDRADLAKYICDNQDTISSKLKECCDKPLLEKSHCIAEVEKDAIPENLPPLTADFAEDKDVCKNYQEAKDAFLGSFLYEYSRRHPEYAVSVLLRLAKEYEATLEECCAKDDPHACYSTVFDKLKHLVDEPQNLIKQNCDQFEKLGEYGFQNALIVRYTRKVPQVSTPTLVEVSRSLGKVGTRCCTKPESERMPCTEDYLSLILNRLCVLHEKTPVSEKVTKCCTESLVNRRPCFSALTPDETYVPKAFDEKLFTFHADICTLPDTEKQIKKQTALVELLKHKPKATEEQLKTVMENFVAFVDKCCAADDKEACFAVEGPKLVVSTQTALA", "assay": "Counterscreen for inhibitors of T-cell receptor (TCR)-CD3 interaction: Fluorescence-based biochemical high throughput dose response assay to identify inhibitors of T-cell receptor (TCR)-CD3 interaction using a TAMRA-labeled BSA probe.", "type": "functional"}, "Paired box protein Pax-8": {"molecular_target": "Paired box protein Pax-8 (Homo sapiens, UniProt Q06710)", "sequence (Q06710 whole entry)": "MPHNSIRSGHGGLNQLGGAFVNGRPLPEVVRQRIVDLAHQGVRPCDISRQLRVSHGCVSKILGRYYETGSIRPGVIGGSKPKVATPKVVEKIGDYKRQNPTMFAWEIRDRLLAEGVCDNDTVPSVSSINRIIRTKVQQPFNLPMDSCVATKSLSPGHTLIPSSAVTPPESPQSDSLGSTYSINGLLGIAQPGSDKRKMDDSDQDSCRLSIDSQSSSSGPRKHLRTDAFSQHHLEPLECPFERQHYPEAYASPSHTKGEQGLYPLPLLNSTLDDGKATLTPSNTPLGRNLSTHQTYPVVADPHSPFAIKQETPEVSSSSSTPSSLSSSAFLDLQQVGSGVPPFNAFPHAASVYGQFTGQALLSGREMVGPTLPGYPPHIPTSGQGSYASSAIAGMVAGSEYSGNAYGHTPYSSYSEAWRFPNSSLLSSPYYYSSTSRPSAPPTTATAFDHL", "assay": "PAX8 transcriptional activity inhibition in RMG-I – RMG-I cells, luciferase, cherry-pick, dose response (AID 687027);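 further: luciferase reporter driven by Pax8 target thyroperoxidase promoter measured by SteadyGlo luminescence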", "type": "functional, cell-based"}, "[2]": {"assay": "HEK-293T cell viability reduction – luminescence, B-cell screen hits, cytotoxicity control for BCR NF-kB inhibitor project, dose response (AID 489021);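 further: cells exposed to compound for about 14 hours before viability readout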", "type": "functional, cell-based"}, "HEK293": {"test_system": "HEK293", "assay": "EBV LMP1 TES2 canonical NF-kB signalling blockers – cell-based, HEK293, luciferase, cherry-pick, dose response (AID 588343)", "type": "functional", "conditions": "Homo sapiens"}, "[3]": {"molecular_target": "T1, Heat shock factor protein 1 (Mus musculus, UniProt P38532)", "T1 sequence (P38532 whole entry)": "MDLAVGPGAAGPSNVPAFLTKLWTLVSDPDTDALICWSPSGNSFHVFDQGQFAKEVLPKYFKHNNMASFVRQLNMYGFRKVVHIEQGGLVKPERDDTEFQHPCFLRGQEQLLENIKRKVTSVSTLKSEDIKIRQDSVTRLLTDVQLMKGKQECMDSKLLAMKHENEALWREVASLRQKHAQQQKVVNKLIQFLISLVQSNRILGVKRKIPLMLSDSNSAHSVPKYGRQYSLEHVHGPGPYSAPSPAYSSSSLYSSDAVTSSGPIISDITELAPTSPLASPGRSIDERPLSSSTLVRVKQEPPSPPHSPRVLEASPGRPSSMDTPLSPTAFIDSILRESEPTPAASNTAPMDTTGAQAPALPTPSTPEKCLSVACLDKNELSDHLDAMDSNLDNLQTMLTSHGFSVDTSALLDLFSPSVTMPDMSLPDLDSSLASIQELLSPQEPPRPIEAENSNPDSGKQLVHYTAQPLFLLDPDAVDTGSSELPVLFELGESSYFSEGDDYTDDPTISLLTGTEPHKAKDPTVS", "assay": "decrease of HSF1-responsive luciferase luminescence – cell-based, NIH3T3, dose retest, confirmation (AID 2382);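 further: NIH3T3 fibroblasts with HSF1-driven luciferase reporter stressed by proteasome inhibitor MG132; luminescence from HSF1-driven luciferase expression after 8 hours of MG132 stress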", "type": "functional"}, "[4]": {"assay": "Luminescence Cell-Based Dose Retest to Confirm Inhibitors of Cancer Stem Cells. [Related pubchem assays (depositor defined):AID2717, AID2721]", "type": "functional", "conditions": "Homo sapiens"}, "[5]": {"assay": "Trypanosoma cruzi growth suppression in host cells – NIH3T3 host cells, beta-gal luminescence, confirmation (AID 2044);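 further: intracellular parasites grown in NIH/3T3 mouse fibroblasts as host cells; luminescent beta-galactosidase reporter signal from transgenic T. cruzi replicating inside host cells; inhibitors lower the luminescence signal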", "type": "functional, cell-based"}, "[6]": {"assay": "reduction of Shn3 3'UTR-driven luciferase in osteoblasts – cell-based, Clone20 osteoblasts, firefly luciferase, cherry-picked, dose response (AID 624132)", "type": "functional"}, "cells [7]": {"assay": "cells", "type": "functional, cell-based"}, "INS1": {"test_system": "INS1", "assay": "INS-1E survival protection against cytokine death – cell-based, luminescence, retest, dose response (AID 449756);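 further: cell death triggered by IL-1 beta plus TNF-alpha plus IFN-gamma mixture; protective hits raise ATP signal compared with cytokine alone wells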", "type": "functional", "conditions": "Rattus norvegicus"}, "Nonstructural protein 1": {"molecular_target": "Nonstructural protein 1 (Influenza A virus, UniProt Q194T2)", "sequence (Q194T2 whole entry)": "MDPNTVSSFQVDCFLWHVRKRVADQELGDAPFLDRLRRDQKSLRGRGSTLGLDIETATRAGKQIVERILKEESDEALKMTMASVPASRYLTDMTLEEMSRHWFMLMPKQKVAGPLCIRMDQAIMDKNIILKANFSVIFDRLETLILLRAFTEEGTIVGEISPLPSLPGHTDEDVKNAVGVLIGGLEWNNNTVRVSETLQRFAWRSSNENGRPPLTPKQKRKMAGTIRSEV", "type": "functional, Influenza A virus (A/California/07/2009(H1N1))"}, "[8]": {"molecular_target": "T2, Microphthalmia-associated transcription factor (Homo sapiens, UniProt O75030)", "T2 sequence (O75030 whole entry)": "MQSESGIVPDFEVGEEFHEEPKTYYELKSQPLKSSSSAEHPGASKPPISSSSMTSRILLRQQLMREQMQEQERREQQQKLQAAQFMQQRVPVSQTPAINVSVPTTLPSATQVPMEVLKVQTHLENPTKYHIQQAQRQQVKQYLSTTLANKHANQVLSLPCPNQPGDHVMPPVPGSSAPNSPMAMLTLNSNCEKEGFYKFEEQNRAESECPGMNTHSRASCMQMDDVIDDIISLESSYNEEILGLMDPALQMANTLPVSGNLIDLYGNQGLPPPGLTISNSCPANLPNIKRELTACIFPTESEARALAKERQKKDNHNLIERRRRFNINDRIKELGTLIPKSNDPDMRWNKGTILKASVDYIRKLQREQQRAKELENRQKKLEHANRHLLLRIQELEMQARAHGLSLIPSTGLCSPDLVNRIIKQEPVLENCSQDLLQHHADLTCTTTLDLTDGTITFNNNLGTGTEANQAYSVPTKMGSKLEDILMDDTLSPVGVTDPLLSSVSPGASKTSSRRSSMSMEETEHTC", "assay": "reducers of TRPM1 reporter luminescence, concentration series – cell-based, SK-MEL-5, cherry-picked, set 3, MITF inhibitor project, dose response (AID 493073)", "type": "functional"}, "H9c2": {"test_system": "H9c2", "assay": "cells", "type": "functional, cell-based", "conditions": "Rattus norvegicus, H9c2, Myocardium"}, "[9]": {"assay": "NIH3T3 cell viability loss – ATP luminescence, mouse fibroblasts, counter-screen, dose response (AID 2010);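 further: cells exposed to compound for about 90 hours before reading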", "type": "functional, cell-based"}, "cells [10]": {"assay": "cells", "type": "functional, cell-based", "remark": "listed apart in the source"}, "[11]": {"assay": "non-specific 3'UTR reporter inhibition in Clone20-Shn3RL – cell-based, Renilla luciferase, cherry-picked, counter-screen for Shn3 inhibitor project, dose response (AID 624133)", "type": "functional"}, "[12]": {"assay": "loss of viability in HepG2 cells – cell-based, CellTiter-Glo, cherry-picked, cytotoxicity control for Shn3 inhibitor project, dose response (AID 624134)", "type": "functional"}, "[13]": {"assay": "M. tuberculosis H37Rv growth inhibitors, H37Rv strain (AID 1626)", "type": "functional"}, "[14]": {"assay": "viability of PTEN-deleted HCT116 cells – cell-based, HCT116 PTEN knockout, dose response (AID 1047);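 further: HCT116 colon tumor cells with PTEN knocked out; cells exposed to compound for 60 hours before readout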", "type": "functional"}, "[15]": {"molecular_target": "T1, Heat shock factor protein 1", "assay": "enhancement of HSF1-driven luciferase signal – cell-based, NIH3T3, luminescence, dose retest, confirmation (AID 435004);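 further: stress induced by proteasome inhibitor MG132 added 30 min after compound; actives raise luminescence as potentiators of the MG132 stress response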", "type": "functional"}, "[16]": {"assay": "viability of HCT116 lacking mutant beta-catenin – cell-based, human colon tumor, dose response (AID 1045);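 further: HCT116 colon tumor cells with beta catenin knocked out; cells exposed to compound for 60 hours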", "type": "functional"}, "[17]": {"molecular_target": "FAD-linked sulfhydryl oxidase ALR (Homo sapiens, UniProt P55789)", "sequence (P55789 whole entry)": "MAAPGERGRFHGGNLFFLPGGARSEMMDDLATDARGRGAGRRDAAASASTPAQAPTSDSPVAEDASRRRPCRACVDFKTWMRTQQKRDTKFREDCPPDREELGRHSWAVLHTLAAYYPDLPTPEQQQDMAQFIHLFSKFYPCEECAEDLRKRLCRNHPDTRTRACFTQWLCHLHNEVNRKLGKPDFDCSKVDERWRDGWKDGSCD", "assay": "ALR-catalysed DTT oxidation blockers – biochemical, H2O2 detection, luminescence, cherry-pick, dose response (AID 493248)"}, "[18]": {"molecular_target": "Heat shock protein HSP 90-alpha (Homo sapiens, UniProt P07900)", "type": "functional, organism-based"}, "[19]": {"assay": "viability of uninfected HEp-2 cells – cell-based, HTS, cytotoxicity control for RSV inhibitor project, dose response (AID 2410)", "type": "functional", "conditions": "human respiratory syncytial virus"}},
  "note": "Activity calls are given as the source filed them.",
  "data": [
    {"smiles": "CC1CCN(CC[C@H]2CCCN2S(=O)(=O)c2cccc(O)c2)CC1", "values": [
      {"measurement": "AC50", "setting": "[1]", "value": "22.4 µM (inconclusive)"}
    ]},
    {"smiles": "COc1ccccc1C(=O)NNC(=O)c1ccc(NC(=O)CC(C)C)cc1", "values": [
      {"measurement": "IC50", "setting": "Albumin", "value": "> 94.1 µM (inactive)"}
    ]},
    {"smiles": "O=C(Nc1cccc(Br)c1)c1ccc2c(c1)SC1=NS(=O)(=O)CCN12", "values": [
      {"measurement": "AC50", "setting": "Paired box protein Pax-8", "value": "3.32 µM (active)"},
      {"measurement": "IC50", "setting": "[2]", "value": "> 80 µM (inactive)"}
    ]},
    {"smiles": "OCCN(CCO)CC(O)COc1ccc(C23CC4CC(CC(C4)C2)C3)cc1", "note": "(centres undefined)", "values": [
      {"measurement": "AC50", "setting": "HEK293", "value": "7.62 µM (active)"},
      {"measurement": "EC50", "setting": "[3]", "value": "3.11 µM (active)"},
      {"measurement": "AC50", "setting": "[4]", "value": "1.05 µM (active)"}
    ]},
    {"smiles": "O=C(Nc1nc(-c2ccccn2)cs1)c1ccccc1-n1cnnn1", "values": [
      {"measurement": "EC50", "setting": "[5]", "value": "1.93 µM (active)"},
      {"measurement": "AC50", "setting": "[6]", "value": "1.71 µM (active)"},
      {"measurement": "EC50", "setting": "cells [7]", "value": "64.3 µM (active)"},
      {"measurement": "AC50", "setting": "INS1", "value": "1.3 µM (active)"},
      {"measurement": "IC50", "setting": "Nonstructural protein 1", "value": "5.44 µM (active)"},
      {"measurement": "AC50", "setting": "[8]", "value": "6.96 µM (active)"},
      {"measurement": "IC50", "setting": "H9c2", "value": "> 79 µM (inactive)"},
      {"measurement": "EC50", "setting": "[9]", "value": "4.31 µM (active)"},
      {"measurement": "EC50", "setting": "cells [10]", "value": "10.6 µM (active)"},
      {"measurement": "AC50", "setting": "[11]", "value": "2.75 µM (active)"},
      {"measurement": "AC50", "setting": "[12]", "value": "5.46 µM (active)"}
    ]},
    {"smiles": "CC(=O)c1cn(CCOc2cc(C)ccc2C)c2ccccc12", "values": [
      {"measurement": "IC50", "setting": "[2]", "value": "> 80 µM (inactive)"},
      {"measurement": "AC50", "setting": "[6]", "value": "1.18 µM (active)"},
      {"measurement": "AC50", "setting": "INS1", "value": "3.62 µM (active)"},
      {"measurement": "AC50", "setting": "[11]", "value": "2.03 µM (active)"},
      {"measurement": "AC50", "setting": "[12]", "value": "2.19 µM (active)"}
    ]},
    {"smiles": "O=C1CCNc2ccc(-c3ccccc3)cc21", "values": [
      {"measurement": "IC50", "setting": "[13]", "value": "> 100 µM (active)"}
    ]},
    {"smiles": "COc1cc(/C=C(\\C#N)C(=O)NC2CCCCC2C)ccc1OS(=O)(=O)c1ccc(C)cc1", "note": "(centres undefined)", "values": [
      {"measurement": "EC50", "setting": "[14]", "value": "10.7 µM (active)"},
      {"measurement": "EC50", "setting": "[15]", "value": "2.17 µM (active)"},
      {"measurement": "IC50", "setting": "[13]", "value": "> 100 µM (active)"},
      {"measurement": "EC50", "setting": "[16]", "value": "9.24 µM (active)"},
      {"measurement": "AC50", "setting": "[4]", "value": "5.32 µM (active)"}
    ]},
    {"smiles": "CNC(=O)c1cc(Nc2nnc(-c3ccc(O)cc3)c3ccccc23)ccc1OC", "values": [
      {"measurement": "AC50", "setting": "[17]", "value": "3.86 µM (active)"},
      {"measurement": "IC50", "setting": "[2]", "value": "> 80 µM (inactive)"}
    ]},
    {"smiles": "CC1CCCCC1NC(=O)/C(C#N)=C/c1ccccc1F", "note": "(centres undefined)", "values": [
      {"measurement": "AC50", "setting": "[18]", "value": "0.94 µM (active)"},
      {"measurement": "AC50", "setting": "[4]", "value": "5.53 µM (active)"},
      {"measurement": "CC50", "setting": "[19]", "value": "21.3 µM (active)"},
      {"measurement": "AC50", "setting": "[8]", "value": "14.4 µM (active)"}
    ]},
    {"smiles": "N#Cc1ccccc1COc1ccc(/C=C/C(=O)O)cc1", "values": [
      {"measurement": "IC50", "setting": "[2]", "value": "> 80 µM (inactive)"}
    ]},
    {"smiles": "COC(=O)c1ccc(NC(=O)CSC2=NCCN2)cc1", "values": [
      {"measurement": "IC50", "setting": "[13]", "value": "> 100 µM (active)"}
    ]},
    {"smiles": "CCOc1ccc(N2C(=O)c3ccccc3C2=O)cc1", "values": [
      {"measurement": "IC50", "setting": "[13]", "value": "> 100 µM (active)"}
    ]},
    {"smiles": "Cc1cc(NC(=O)CCCN2C(=O)/C(=C/c3ccccc3Cl)SC2=S)no1", "values": [
      {"measurement": "IC50", "setting": "[2]", "value": "> 80 µM (inactive)"}
    ]}
  ]
}
